From ChEMBL document CHEMBL1136121, “Side-chain-to-tail thiolactone peptide inhibitors of the staphylococcal quorum-sensing system” (Bioorg Med Chem Lett, 2003)
pIC50: −log10 of the molar value. Positions of bridges follow the written chain, without caps; N, C: chain ends. Non-standard residues stand in square brackets, D forms with d. Residues, ends and D or L forms follow the SMILES beside them. Abu = CC[C@H](N)C(=O)O

Experiments:
Staphylococcus aureus [1] = assay: Compound tested to inhibit staphylococcal AgrC-1; type: functional, organism-based
Staphylococcus aureus [2] = assay: Compound tested to inhibit staphylococcal AgrC-2; type: functional, organism-based

SMILES	pIC50 (Staphylococcus aureus [1])	pIC50 (Staphylococcus aureus [2])
CC[C@H](C)[C@@H]1NC(=O)[C@@H](Cc2ccccc2)NC(=O)[C@H](C)NC(=O)[C@H](NC(=O)[C@@H](NC(=O)[C@H](CO)NC(=O)CCCOc2ccc(Cc3ccccc3)cc2)[C@@H](C)O)CSC(=O)[C@H](CCSC)NC1=O	6.53	7.72
CC[C@H](C)[C@H]1NC(=O)[C@@H](Cc2ccccc2)NC(=O)[C@@H](C)NC(=O)[C@H](NC(=O)[C@@H](NC(=O)[C@H](CO)NC(=O)CCCOc2ccc(C(=O)c3ccccc3)cc2)[C@@H](C)O)CSC(=O)[C@@H](CCSC)NC1=O	6.52	7.74
CC[C@H](C)[C@@H]1NC(=O)[C@H](Cc2ccccc2)NC(=O)[C@H](C)NC(=O)[C@@H](NC(=O)[C@@H](NC(=O)[C@H](CO)NC(=O)[C@@H](N)Cc2ccc(O)cc2)[C@@H](C)O)CSC(=O)[C@H](CCSC)NC1=O (H-YSTCAFIM; thioester 4-C)	7.68	8.40
CC[C@@H]1NC(=O)[C@@H](NC(=O)[C@@H](NC(=O)[C@H](CO)NC(=O)[C@@H](N)Cc2ccc(O)cc2)[C@@H](C)O)CSC(=O)[C@H](CCSC)NC(=O)[C@H]([C@@H](C)CC)NC(=O)[C@H](Cc2ccccc2)NC1=O (H-YSTC[Abu]FIM; thioester 4-C)	6.86	8.55
